Assay results: patent US20090304755A1, “PHARMACEUTICAL FORMULATION OF LOSARTAN” (priority 2005, published 2009)

Columns and labels:
[1] = Particle size by Malvern light scattering technique; type: physicochemical; details: particle size of losartan active agent
Text: “d (0.9)” denotes a particle size wherein 90% (volume) particles have diameter less than the specified diameter d.

[2] = Specific surface area by gas adsorption analyzer method (BET); type: physicochemical; details: losartan active agent
Text: The results of our investigations have shown that it is advantageous to use losartan, with a particle size d (0.9) less than 50μ measured by Malvern light scattering technique, and/or a specific particle specific surface area more than 0.6 m^2/g measured by the Gas adsorption analyzer method (BET).

[3] = oral administration; cited from earlier work

d (0.1) [1] | d (0.5) [1] | d (0.9) [1] | Specific Surface Area [2] | Structure (SMILES) | systemic bioavailability [3]
d (0.1) = 0.869μ | d (0.5) = 10.077μ | d (0.9) = 21.382μ | Specific Surface Area = 0.7-0.8 m^2/g | CCCCc1nc(Cl)c(CO)n1Cc1ccc(-c2ccccc2-c2nn[nH]n2)cc1 [A, Losartan Potassium] | 
d (0.1) = 1.806μ | d (0.5) = 24.812μ | d (0.9) = 53.931μ | Specific Surface Area = 0.4-0.5 m^2/g | CCCCc1nc(Cl)c(CO)n1Cc1ccc(-c2ccccc2-c2nn[nH]n2)cc1 [B, Losartan Potassium] | 
 |  |  |  | CCCCc1nc(Cl)c(CO)n1Cc1ccc(-c2ccccc2-c2nn[nH]n2)cc1 [losartan, Losartan] | approximately 33%
